Source: ChEMBL document CHEMBL1201862, “PubChem BioAssay data set” (2004)
Active and inactive are the calls of the source.

Tests used:
[1] = target: Cytochrome P450 3A4 (Homo sapiens, UniProt P08684);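 also: CYP3A4 tested as one member of a cytochrome P450 panel screen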
[2] = target: T1, Polyadenylate-binding protein 1 (Homo sapiens, UniProt P11940); test: MLLE domain peptide-binding blockers, IC50 – biochemical, fluorescence polarization, FITC-PAM2 peptide, dose response (AID 602259); format: functional; conditions: read-out: IC50_Mean
T1 sequence (P11940 whole entry, the tested form may be a part): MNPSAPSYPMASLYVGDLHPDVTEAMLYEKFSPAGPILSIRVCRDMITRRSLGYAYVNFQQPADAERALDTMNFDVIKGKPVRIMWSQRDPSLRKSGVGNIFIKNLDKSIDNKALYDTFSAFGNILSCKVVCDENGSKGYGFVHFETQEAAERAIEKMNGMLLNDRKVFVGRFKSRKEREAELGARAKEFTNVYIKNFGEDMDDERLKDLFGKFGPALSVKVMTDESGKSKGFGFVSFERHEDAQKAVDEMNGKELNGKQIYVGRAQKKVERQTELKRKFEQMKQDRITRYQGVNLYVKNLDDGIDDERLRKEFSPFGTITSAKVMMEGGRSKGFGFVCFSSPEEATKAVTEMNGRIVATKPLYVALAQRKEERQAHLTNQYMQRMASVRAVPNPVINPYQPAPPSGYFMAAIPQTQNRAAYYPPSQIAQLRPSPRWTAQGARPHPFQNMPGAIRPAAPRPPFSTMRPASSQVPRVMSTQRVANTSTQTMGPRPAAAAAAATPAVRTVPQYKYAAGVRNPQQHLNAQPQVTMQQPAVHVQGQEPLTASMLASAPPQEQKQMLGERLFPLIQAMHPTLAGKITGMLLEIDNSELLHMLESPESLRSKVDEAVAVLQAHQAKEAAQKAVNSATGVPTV

[3] = target: T1, Polyadenylate-binding protein 1; test: MLLE binding blockers, Cy5 peptide tracer – biochemical, fluorescence polarization, Cy5-PAM2 peptide, secondary, miRNA deadenylation inhibitor project, dose response (AID 602260); format: functional; conditions: read-out: IC50_Mean
[4] = HIV-1 AD8 envelope cell-cell fusion blockers – cherry-pick, dose response (AID 652062); format: functional, cell-based;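 also: luciferase signal from cell-cell fusion driven by HIV-1 clade B AD8 Env; potency is for inhibitors of fusion seen as a drop in luminescence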
[5] = blockers of HIV-1 ZM109 envelope-driven cell-cell fusion – HeLa effector, CEM target cells, luciferase, cherry-pick, dose response (AID 652058); format: functional, cell-based;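 also: luciferase signal from HIV-1 Env mediated cell-cell fusion of effector and target cells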
[6] = target: T2, Zinc finger protein mex-5 (Caenorhabditis elegans, UniProt Q9XUB2); test: potency of MEX-5 RNA-binding blockers – biochemical, C. elegans, fluorescence polarization, dose response (AID 1960)
T2 sequence (Q9XUB2 whole entry): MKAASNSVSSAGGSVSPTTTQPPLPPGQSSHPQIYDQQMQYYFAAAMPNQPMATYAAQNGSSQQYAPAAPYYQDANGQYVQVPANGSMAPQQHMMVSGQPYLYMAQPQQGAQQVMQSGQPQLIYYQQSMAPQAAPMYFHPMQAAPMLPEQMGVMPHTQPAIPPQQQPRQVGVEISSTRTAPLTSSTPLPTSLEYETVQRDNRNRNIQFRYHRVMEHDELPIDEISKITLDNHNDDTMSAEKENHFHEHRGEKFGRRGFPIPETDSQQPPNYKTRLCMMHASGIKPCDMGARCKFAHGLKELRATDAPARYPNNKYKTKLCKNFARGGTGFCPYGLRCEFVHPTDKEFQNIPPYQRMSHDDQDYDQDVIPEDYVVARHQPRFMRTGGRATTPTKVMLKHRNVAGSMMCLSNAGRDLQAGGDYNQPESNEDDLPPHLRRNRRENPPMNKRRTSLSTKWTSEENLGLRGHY

[7] = target: T3, RNA-binding protein pos-1 (Caenorhabditis elegans, UniProt G5EF15); test: disruptors of C. elegans POS-1 RNA interaction – biochemical, fluorescence polarization, dose response (AID 1964);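 also: purified POS-1 fused to maltose binding protein made in E. coli; potency of compounds blocking POS-1 binding to fluorescent RNA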
T3 sequence (G5EF15 whole entry): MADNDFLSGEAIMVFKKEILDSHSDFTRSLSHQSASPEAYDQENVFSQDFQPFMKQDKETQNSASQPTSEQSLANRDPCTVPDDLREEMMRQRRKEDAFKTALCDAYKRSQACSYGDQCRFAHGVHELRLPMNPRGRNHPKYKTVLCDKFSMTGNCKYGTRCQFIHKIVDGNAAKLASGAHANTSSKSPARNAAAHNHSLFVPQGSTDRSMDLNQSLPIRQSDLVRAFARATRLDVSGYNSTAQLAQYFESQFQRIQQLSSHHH

[8] = target: T4, Heat shock factor protein 1 (Mus musculus, UniProt P38532); test: decrease of HSF1-responsive luciferase luminescence – cell-based, NIH3T3, dose retest, confirmation (AID 2382); format: functional;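 also: NIH3T3 fibroblasts with HSF1-driven luciferase reporter stressed by proteasome inhibitor MG132; luminescence from HSF1-driven luciferase expression after 8 hours of MG132 stress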
T4 sequence (P38532 whole entry): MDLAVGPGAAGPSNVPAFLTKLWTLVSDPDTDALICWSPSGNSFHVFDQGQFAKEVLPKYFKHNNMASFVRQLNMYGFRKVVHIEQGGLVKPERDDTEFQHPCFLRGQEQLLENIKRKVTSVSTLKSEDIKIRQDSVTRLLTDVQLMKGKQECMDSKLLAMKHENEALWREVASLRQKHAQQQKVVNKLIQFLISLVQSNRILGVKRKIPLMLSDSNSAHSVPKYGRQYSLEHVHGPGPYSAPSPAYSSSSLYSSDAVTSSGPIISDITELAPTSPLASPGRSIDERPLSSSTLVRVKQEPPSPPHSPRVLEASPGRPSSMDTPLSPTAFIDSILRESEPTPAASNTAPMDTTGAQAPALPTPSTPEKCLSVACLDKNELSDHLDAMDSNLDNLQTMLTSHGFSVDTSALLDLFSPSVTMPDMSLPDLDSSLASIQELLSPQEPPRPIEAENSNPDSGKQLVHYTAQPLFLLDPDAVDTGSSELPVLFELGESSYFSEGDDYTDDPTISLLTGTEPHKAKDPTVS

[9] = DRD fibroblast viability loss – cell-based, non-viral oncogenic, luminescence, dose response (AID 1934); format: functional; conditions: Homo sapiens
[10] = tested on: BJ; test: cells; format: functional, cell-based; conditions: Homo sapiens
[11] = tested on: BJ; test: BJ-TERT fibroblast viability loss – cell-based, RAS-independent, luminescence, dose response (AID 1933); format: functional; conditions: Homo sapiens
[12] = tested on: BJ; test: BJ-TERT-LT-ST fibroblast viability loss – cell-based, RAS-independent, luminescence, dose response (AID 1935); format: functional; conditions: Homo sapiens;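 also: BJ fibroblasts immortalized with TERT plus LT and ST oncogenes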
[13] = NIH-3T3 fibroblast cytotoxicity, dose response, cytotoxicity control, cell-based, fluorescence, Alamar Blue, secondary assay (AID 2327); format: functional;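 also: NIH-3T3 mouse fibroblasts cultured with fluconazole at 8 µg/mL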
[14] = target: Cytochrome P450 2C9 (Homo sapiens, UniProt P11712)
Cytochrome P450 2C9, sequence (P11712 whole entry): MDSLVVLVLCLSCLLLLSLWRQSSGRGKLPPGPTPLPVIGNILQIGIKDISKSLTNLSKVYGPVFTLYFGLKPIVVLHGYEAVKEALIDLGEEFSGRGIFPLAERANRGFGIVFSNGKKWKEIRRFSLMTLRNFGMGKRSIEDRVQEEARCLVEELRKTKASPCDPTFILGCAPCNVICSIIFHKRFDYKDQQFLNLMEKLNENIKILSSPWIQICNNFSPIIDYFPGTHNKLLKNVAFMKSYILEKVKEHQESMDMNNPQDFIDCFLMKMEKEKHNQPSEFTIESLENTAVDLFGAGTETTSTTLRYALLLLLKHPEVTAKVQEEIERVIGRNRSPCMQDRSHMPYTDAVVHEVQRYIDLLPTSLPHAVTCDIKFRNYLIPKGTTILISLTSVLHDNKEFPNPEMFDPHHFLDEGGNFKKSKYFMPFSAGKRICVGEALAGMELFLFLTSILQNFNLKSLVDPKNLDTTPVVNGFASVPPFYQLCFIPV

[15] = target: Cytochrome P450 2C19 (Homo sapiens, UniProt P33261); test: Cytochrome panel assay with activity outcomes. Panel member name: p450-cyp2c19 Compounds with AC50 equal or less than 10 uM are considered active; format: functional
Cytochrome P450 2C19, sequence (P33261 whole entry): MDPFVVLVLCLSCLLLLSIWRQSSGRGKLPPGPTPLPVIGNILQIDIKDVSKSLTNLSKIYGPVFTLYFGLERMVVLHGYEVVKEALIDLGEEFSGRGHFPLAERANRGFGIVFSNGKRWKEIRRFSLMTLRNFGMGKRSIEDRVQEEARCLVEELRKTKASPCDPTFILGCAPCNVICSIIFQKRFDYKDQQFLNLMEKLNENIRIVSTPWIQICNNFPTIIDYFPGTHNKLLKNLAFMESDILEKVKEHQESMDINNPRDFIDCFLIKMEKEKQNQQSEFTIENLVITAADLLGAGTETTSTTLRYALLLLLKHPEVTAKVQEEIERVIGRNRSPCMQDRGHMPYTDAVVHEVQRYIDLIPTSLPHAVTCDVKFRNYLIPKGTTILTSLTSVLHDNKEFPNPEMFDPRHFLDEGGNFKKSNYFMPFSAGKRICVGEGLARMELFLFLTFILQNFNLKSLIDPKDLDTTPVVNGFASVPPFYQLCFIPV

[16] = target: T5, Protein RecA (Mycobacterium tuberculosis, UniProt P9WHJ3); test: Fluorescence Cell-Free Homogeneous Dose Retest to Identify Inhibitors of RecA-Intein Splicing Activity. [Related pubchem assays (depositor defined):AID2097, AID2223, AID489010, AID492950]; format: functional
T5 sequence (P9WHJ3 whole entry): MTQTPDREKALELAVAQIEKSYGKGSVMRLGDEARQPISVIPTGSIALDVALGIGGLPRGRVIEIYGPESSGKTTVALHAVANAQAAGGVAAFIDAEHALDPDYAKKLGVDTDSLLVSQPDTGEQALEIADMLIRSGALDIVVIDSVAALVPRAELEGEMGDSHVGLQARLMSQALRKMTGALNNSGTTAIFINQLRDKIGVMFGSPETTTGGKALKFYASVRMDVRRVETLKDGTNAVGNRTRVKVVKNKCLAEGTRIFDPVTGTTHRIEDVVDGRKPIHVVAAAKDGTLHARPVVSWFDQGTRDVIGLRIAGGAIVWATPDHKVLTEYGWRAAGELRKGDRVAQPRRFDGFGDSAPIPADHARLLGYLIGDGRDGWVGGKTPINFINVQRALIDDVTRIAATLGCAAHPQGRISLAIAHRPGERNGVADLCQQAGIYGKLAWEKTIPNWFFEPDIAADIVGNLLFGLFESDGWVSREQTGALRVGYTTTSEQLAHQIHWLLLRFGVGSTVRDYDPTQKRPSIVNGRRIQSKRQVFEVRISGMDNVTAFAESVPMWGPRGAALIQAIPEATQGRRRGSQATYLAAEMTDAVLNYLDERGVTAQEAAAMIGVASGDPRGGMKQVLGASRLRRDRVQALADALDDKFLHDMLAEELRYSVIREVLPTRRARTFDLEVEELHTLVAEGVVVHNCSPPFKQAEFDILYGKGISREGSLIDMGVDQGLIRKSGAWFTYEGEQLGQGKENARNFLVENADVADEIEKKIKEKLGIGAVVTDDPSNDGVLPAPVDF

[17] = target: T6, Replicative DNA helicase DnaB (Mycobacterium tuberculosis, UniProt P9WMR3); test: DnaB intein splicing inhibitors, dose response, biochemical, cell-free fluorescence (AID 449749); format: functional
T6 sequence (P9WMR3 whole entry): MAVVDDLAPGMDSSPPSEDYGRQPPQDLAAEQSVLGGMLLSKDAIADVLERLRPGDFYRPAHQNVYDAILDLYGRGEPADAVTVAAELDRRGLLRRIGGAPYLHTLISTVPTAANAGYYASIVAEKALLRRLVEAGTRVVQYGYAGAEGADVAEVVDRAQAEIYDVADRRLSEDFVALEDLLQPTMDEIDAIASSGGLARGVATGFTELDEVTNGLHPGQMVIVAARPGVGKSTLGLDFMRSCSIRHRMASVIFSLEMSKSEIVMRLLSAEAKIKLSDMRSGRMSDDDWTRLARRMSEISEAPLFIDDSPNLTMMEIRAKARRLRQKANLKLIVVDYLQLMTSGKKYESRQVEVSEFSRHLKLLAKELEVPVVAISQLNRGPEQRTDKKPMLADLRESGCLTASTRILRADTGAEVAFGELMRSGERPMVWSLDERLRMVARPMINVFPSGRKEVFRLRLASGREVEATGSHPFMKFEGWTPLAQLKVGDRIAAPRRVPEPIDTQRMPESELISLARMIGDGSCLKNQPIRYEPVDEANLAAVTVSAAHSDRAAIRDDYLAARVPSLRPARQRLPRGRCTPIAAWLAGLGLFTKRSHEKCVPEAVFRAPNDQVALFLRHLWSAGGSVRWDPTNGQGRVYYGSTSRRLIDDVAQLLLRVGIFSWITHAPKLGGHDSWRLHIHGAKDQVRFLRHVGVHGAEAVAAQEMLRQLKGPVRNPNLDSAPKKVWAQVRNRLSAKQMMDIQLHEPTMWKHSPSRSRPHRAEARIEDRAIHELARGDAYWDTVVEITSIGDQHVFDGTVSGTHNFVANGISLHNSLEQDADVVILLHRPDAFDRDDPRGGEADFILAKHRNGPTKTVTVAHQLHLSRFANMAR

[18] = alpha-synuclein stem-loop luciferase translation blockers – H4 neuroglioma cells, luminescence, confirmation (AID 1988); format: functional, cell-based
[19] = luciferase reporter signal suppression in cells – H4 neuroglioma cells, luminescence, dose response (AID 1990); format: functional, cell-based
[20] = Luminescence Cell-Based Dose Response HTS to Identify Inhibitors of 5'UTR Stem-Loop Driven Prion Protein mRNA Translation in H4 Neuroglioblastoma Cells. [Related pubchem assays: 1827 (Project Summary), 1813 (Primary HTS)]; format: functional

Cytochrome P450 3A4, sequence (P08684 whole entry, the tested form may be a part): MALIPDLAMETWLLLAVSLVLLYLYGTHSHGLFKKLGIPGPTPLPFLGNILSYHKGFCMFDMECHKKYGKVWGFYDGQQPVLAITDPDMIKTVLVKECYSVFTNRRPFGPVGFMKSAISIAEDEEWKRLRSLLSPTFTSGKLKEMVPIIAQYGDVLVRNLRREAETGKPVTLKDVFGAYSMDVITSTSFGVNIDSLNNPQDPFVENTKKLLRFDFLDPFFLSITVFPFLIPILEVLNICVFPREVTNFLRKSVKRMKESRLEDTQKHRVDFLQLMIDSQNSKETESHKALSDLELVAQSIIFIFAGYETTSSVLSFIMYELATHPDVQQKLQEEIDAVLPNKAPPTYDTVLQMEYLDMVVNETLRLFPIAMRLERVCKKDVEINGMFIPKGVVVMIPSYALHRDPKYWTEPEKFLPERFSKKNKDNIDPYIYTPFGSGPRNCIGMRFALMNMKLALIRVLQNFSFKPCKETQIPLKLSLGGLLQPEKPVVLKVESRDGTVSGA

## COC(=O)c1cc(-c2ccccc2)sc1NC(=O)CN1C(=O)c2ccccc2C1=O
[1]
  AC50: 31.6 µM (inconclusive)
[2]
  IC50: > 66 µM (inactive)
[3]
  IC50: > 66 µM (inactive)

## O=C(NC(=S)Nc1ccc(CN2CCOCC2)cc1)c1ccc([N+](=O)[O-])cc1
[2]
  IC50: > 66 µM (inactive)
[3]
  IC50: > 66 µM (inactive)

## C=CC[n+]1c(-c2ccc(OC)c(OC)c2)csc1NNC(=O)Nc1ccccc1
[4]
  AC50: 15.8 µM (active)
[5]
  AC50: 0.401 µM (active)

## NC(=O)CC(NC(=O)Cc1ccc(Cl)cc1)c1ccc(NC2CCCCCC2)c([N+](=O)[O-])c1 (centres undefined)
[6]
  EC50: > 300 µM (not active)
[7]
  EC50: > 300 µM (not active)
[8]
  EC50: > 195 µM (not active)

## O=C(O)c1ccc2c(=O)n3c(nc2c1)/C(=C/c1ccc(C(F)(F)F)cc1)CC3
[9]
  EC50: > 150 µM (not active)
[10]
  EC50: > 150 µM (not active)
[11]
  EC50: > 150 µM (not active)
[12]
  EC50: > 150 µM (inconclusive)

## C=C(C)c1cccc(C(C)(C)NC(=O)Nc2ccc(C(N)=O)cc2)c1
[13]
  EC50: > 150 µM (inactive)

## CCOc1ccccc1C(=O)NCC(=O)NNC(=O)CN(C)S(=O)(=O)c1ccc(Cl)cc1
[5]
  AC50: 23.6 µM (active)

## COC(=O)c1c(N=C(S)Nc2cc(OC)c(Cl)cc2OC)sc2c1CCCCC2
[2]
  IC50: > 66 µM (inactive)
[3]
  IC50: > 66 µM (inactive)

## Cc1cc(O)nc(SCC(=O)Nc2ccc(C(=O)O)cc2)n1
[2]
  IC50: > 66 µM (inactive)
[3]
  IC50: > 66 µM (inactive)

## COc1cccc(C(=O)NCc2ccc3[nH]c(C)cc3c2)c1
[2]
  IC50: > 66 µM (inactive)
[3]
  IC50: > 66 µM (inactive)

## Cc1nc(N=C(N)S)sc1C(=O)Nc1ccccc1
[14]
  AC50: 39.8 µM (inconclusive)
[1]
  AC50: 14.1 µM (inconclusive)
[15]
  AC50: inconclusive
[2]
  IC50: > 66 µM (inactive)
[3]
  IC50: > 66 µM (inactive)

## COc1ccc(C(=O)NC(=S)N2CCCc3ccccc32)cc1OC
[2]
  IC50: > 66 µM (inactive)
[3]
  IC50: > 66 µM (inactive)

## Cc1ccc2nc(O)c(C(c3nnnn3CC3CCCO3)N3CCc4ccccc4C3)cc2c1 (centres undefined)
[2]
  IC50: > 66 µM (inactive)
[3]
  IC50: > 66 µM (inactive)

## CCOC(=O)c1sc(N(Cc2ccccc2)C(=O)CCl)nc1C
[16]
  EC50: 0.79 µM (active)
[9]
  EC50: 4.97 µM (inconclusive)
[10]
  EC50: 11.9 µM (active)
[11]
  EC50: 1.77 µM (active)
[12]
  EC50: 8.8 µM (active)
[17]
  AC50: 2.6 µM (active)

## O=c1c2ccccc2c(-c2ccc(O)cc2)nn1-c1cccc(C(F)(F)F)c1
[18]
  EC50: > 120 µM (not active)
[19]
  EC50: 16.6 µM (active)
[20]
  EC50: > 120 µM (not active)

## O=S(=O)(NCCCSc1ccccc1)c1ccccc1F
[2]
  IC50: > 66 µM (inactive)
[3]
  IC50: > 66 µM (inactive)

## O=C1/C(=C\c2ccccc2)C2OCC=C3CN4CCC56c7ccccc7N1C5C2C3CC46 (centres undefined)
[9]
  EC50: 15.3 µM (active)
[10]
  EC50: > 150 µM (not active)
[11]
  EC50: 19.4 µM (active)
[12]
  EC50: > 75 µM (inconclusive)

## CCN(CC)CCCCNc1ncc2cc(-c3cc(OC)cc(OC)c3)c(NC(=O)NC(C)(C)C)nc2n1 [PD-173074]
[18]
  EC50: 9.24 µM (active)
[19]
  EC50: > 120 µM (not active)
[20]
  EC50: 12.8 µM (active)
